Data: patent US9913809B1, “Anti-cancer activity of (E)-1-(3′,4′-dimethoxyphenyl) butadiene” (SAMI LABS LIMITED, priority 2016, dated 2018)
≈ marks a conversion by molar mass, not a printed value.

Legend:
[1] = system: P-selectin (CD 62P); test: Flow cytometry, P-selectin expression in HCT colorectal carcinoma cells; assay type: cell-based, human; details: TNF-alpha and IL-1beta 10 ng/ml, 72 hours
[2] = system: DU145 cancer cell line (prostate carcinoma); test: MTT cytotoxicity assay, DU145; assay type: cell-based; details: Homo sapiens, DU 145, prostate carcinoma
Experimental: (§1) Human pancreatic PANC-1 cancer cell line (pancreatic carcinoma cells), human prostate DU145 cancer cell line (prostate carcinoma), human ovarian cancer SKOV3 (ovarian carcinoma) cell line, colon Caco-2 cancer cell line (Colon Carcinoma), lung A549 cancer cell line (Lung carcinoma), lymphoblastoma K562 cancer cell line, melanoma B16F1 cancer cell line and colorectal HCT cancer cell line (Colorectal carcinoma), were grown and cultured using standard protocols known in the art. The cancer cell lines were treated with DMPBD in varying concentrations for measuring cytotoxicity. The estimation of the viability assay of the cells was done by the MTT (3-(4,5-dimethylthiazol-2-yl)-2,5-diphenyltetrazolium bromide) colorimetric assay. The MTT Assay measures the cell proliferation rate and conversely, when metabolic events lead to apoptosis or necrosis, the reduction in cell viability. The data is analyzed by plotting cell number versus absorbance allowing the quantification of changes in cell proliferation. The rate of tetrazolium reduction is proportional to the rate of cell proliferation. […]
(§2) The MTT Assay as performed was adapted from (1) Tim Mosmann. […] A tetrazolium-based colorimetric MTT assay to quantitate human monocyte mediated cytotoxicity against leukemic cells from cell lines and patients with acute myeloid leukemia. […]

[3] = system: A549 cancer cell line (Lung carcinoma); test: MTT cytotoxicity assay, A549; assay type: cell-based; details: Homo sapiens
Experimental: as §1, §2

[4] = system: P-selectin (CD 62P); test: Flow cytometry, P-selectin expression in LNCap prostate carcinoma cells; assay type: cell-based, human; details: DMPBD 70 μg/ml, TNF-alpha and IL-1beta 10 ng/ml, 72 hours
[5] = system: PANC-1 cancer cell line (pancreatic carcinoma cells); test: MTT cytotoxicity assay, PANC-1; assay type: cell-based; details: Homo sapiens, PANC-1, pancreatic carcinoma
Experimental: as §1, §2

[6] = system: HCT cancer cell line (Colorectal carcinoma); test: MTT cytotoxicity assay, HCT; assay type: cell-based; details: Homo sapiens
Experimental: as §1, §2

[7] = system: SKOV3 (ovarian carcinoma) cell line; test: MTT cytotoxicity assay, SKOV3; assay type: cell-based; details: Homo sapiens, SK-OV-3
Experimental: as §1, §2

[8] = system: E-selectin (CD 62E); test: Flow cytometry, E-selectin expression in pancreatic carcinoma cells; assay type: cell-based, human; details: flow cytometric studies
[9] = system: L-selectin (CD 62L); test: Flow cytometry, L-selectin expression in K562 lymphoblastoma cells; assay type: cell-based, human; details: DMPBD 20 μg/ml, TNF-alpha and IL-1beta 10 ng/ml, 72 hours
[10] = system: L-selectin (CD 62L); test: Flow cytometry, L-selectin expression in pancreatic carcinoma cells; assay type: cell-based, human; details: flow cytometric studies
[11] = system: Caco-2 cancer cell line (Colon Carcinoma); test: MTT cytotoxicity assay, Caco-2; assay type: cell-based; details: Homo sapiens, Caco-2, colon carcinoma
Experimental: as §1, §2

[12] = system: L-selectin (CD 62L); test: Flow cytometry, L-selectin expression in HCT colorectal carcinoma cells; assay type: cell-based, human; details: TNF-alpha and IL-1beta 10 ng/ml, 72 hours
[13] = system: P-selectin (CD 62P); test: Flow cytometry, P-selectin expression in K562 lymphoblastoma cells; assay type: cell-based, human; details: TNF-alpha and IL-1beta 10 ng/ml, 72 hours
[14] = system: lymphoblastoma K562 cancer cell line; test: MTT cytotoxicity assay, K562; assay type: cell-based; details: Homo sapiens
Experimental: as §1, §2

[15] = system: L-selectin (CD 62L); test: Flow cytometry, L-selectin expression in LNCap prostate carcinoma cells; assay type: cell-based, human; details: DMPBD 20 μg/ml, TNF-alpha and IL-1beta 10 ng/ml, 72 hours
[16] = system: P-selectin (CD 62P); test: Flow cytometry, P-selectin expression in pancreatic carcinoma cells; assay type: cell-based, human; details: flow cytometric studies
[17] = system: melanoma B16F1 cancer cell line; test: MTT cytotoxicity assay, B16F1; assay type: cell-based, human; details: Mus musculus, B16-F1
Experimental: as §1, §2

C=C/C=C/c1ccc(OC)c(OC)c1 [DMPBD, (E)-1-(3′, 4′-Dimethoxyphenyl) butadiene]
% Reduction of P-selectin expression ([1]; DMPBD 10 μg/ml): 11.8% | % Reduction of P-selectin expression ([1]; DMPBD 20 μg/ml): 27.8% | IC50 [2]: 8.6 µg/mL (≈ 45.2 µM) | IC50 [3]: 30.2 µg/mL (≈ 159 µM) | % Reduction of P-selectin expression [4]: 11.1% | IC50 [5]: 4.2 µg/mL (≈ 22.1 µM) | IC50 [6]: 25.5 µg/mL (≈ 134 µM) | IC50 [7]: 13.5 µg/mL (≈ 71 µM) | expression of E-selectin [8]: significant fold decrease | % Reduction of L-selectin expression [9]: 30.3% | expression of L-selectin [10]: significant fold decrease | IC50 [11]: 39.3 µg/mL (≈ 207 µM) | % Reduction of L-selectin expression ([12]; DMPBD 10 μg/ml): 11.3% | % Reduction of L-selectin expression ([12]; DMPBD 20 μg/ml): 21.1% | % Reduction of P-selectin expression ([13]; DMPBD 10 μg/ml): 11.6% | % Reduction of P-selectin expression ([13]; DMPBD 20 μg/ml): 35.4% | IC50 [14]: 22.5 µg/mL (≈ 118 µM) | % Reduction of L-selectin expression [15]: 7.3% | expression of P-selectin [16]: significant fold decrease | IC50 [17]: 26.4 µg/mL (≈ 139 µM)
